Key:
Experiment in all cases: relative viability (nuclei count vs DMSO), 5 days (fraction); higher = more cells survive
Afatinib + Trametinib = compound: CN(C)C/C=C/C(=O)Nc1cc2c(Nc3ccc(F)c(Cl)c3)ncnc2cc1O[C@H]1CCOC1 [Afatinib] + CC(=O)Nc1cccc(-n2c(=O)n(C3CC3)c(=O)c3c(Nc4ccc(I)cc4F)n(C)c(=O)c(C)c32)c1 [Trametinib] (partner 0.02 µM)
Procedure, shortened: (§1)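 Relative viability divides the nuclei count in treated wells by that in vehicle wells. Lung cancer cell lines were seeded in 1536-well plates, dosed by pin tool the next day, and fixed and stained after 5 days in one step with final 0.05% Triton X-100, 1% formaldehyde and 1 ug/ml Hoechst. Dosing was a single drug or a fixed anchor-drug dose plus five library-drug doses (not always all listed) in √10 steps, and values are medians of duplicate plates imaged at 4×.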

Afatinib + Navitoclax = compound: CN(C)C/C=C/C(=O)Nc1cc2c(Nc3ccc(F)c(Cl)c3)ncnc2cc1O[C@H]1CCOC1 [Afatinib] + CC1(C)CCC(c2ccc(Cl)cc2)=C(CN2CCN(c3ccc(C(=O)NS(=O)(=O)c4ccc(N[C@H](CCN5CCOCC5)CSc5ccccc5)c(S(=O)(=O)C(F)(F)F)c4)cc3)CC2)C1 [Navitoclax] (partner 0.5 µM)
Procedure, shortened: as §1

Afatinib + Phenformin = compound: CN(C)C/C=C/C(=O)Nc1cc2c(Nc3ccc(F)c(Cl)c3)ncnc2cc1O[C@H]1CCOC1 [Afatinib] + N=C(N)NC(=N)NCCc1ccccc1 [Phenformin] (partner 250 µM)
Procedure, shortened: as §1

Afatinib + Pemetrexed = compound: CN(C)C/C=C/C(=O)Nc1cc2c(Nc3ccc(F)c(Cl)c3)ncnc2cc1O[C@H]1CCOC1 [Afatinib] + Nc1nc2[nH]cc(CCc3ccc(C(=O)N[C@@H](CCC(=O)O)C(=O)O)cc3)c2c(=O)[nH]1 [Pemetrexed] (partner 0.2 µM)
Procedure, shortened: as §1

Row | Cell Line | relative viability (Afatinib + Trametinib; first compound 0.005 µM) | relative viability (Afatinib + Trametinib; first compound 0.01581 µM) | relative viability (Afatinib + Trametinib; first compound 0.05 µM) | relative viability (Afatinib + Trametinib; first compound 0.1581 µM) | relative viability (Afatinib + Trametinib; first compound 0.5 µM) | relative viability (Afatinib + Navitoclax; first compound 0.005 µM) | relative viability (Afatinib + Navitoclax; first compound 0.01581 µM) | relative viability (Afatinib + Navitoclax; first compound 0.05 µM) | relative viability (Afatinib + Navitoclax; first compound 0.1581 µM) | relative viability (Afatinib + Navitoclax; first compound 0.5 µM) | relative viability (Afatinib + Phenformin; first compound 0.005 µM) | relative viability (Afatinib + Phenformin; first compound 0.01581 µM) | relative viability (Afatinib + Phenformin; first compound 0.05 µM) | relative viability (Afatinib + Phenformin; first compound 0.1581 µM) | relative viability (Afatinib + Phenformin; first compound 0.5 µM) | relative viability (Afatinib + Pemetrexed; first compound 0.005 µM) | relative viability (Afatinib + Pemetrexed; first compound 0.01581 µM) | relative viability (Afatinib + Pemetrexed; first compound 0.05 µM) | relative viability (Afatinib + Pemetrexed; first compound 0.1581 µM) | relative viability (Afatinib + Pemetrexed; first compound 0.5 µM)
1 | NCI-H1944 | 0.431 | 0.373 | 0.358 | 0.259 | 0.298 | 1.04 | 0.959 | 0.903 | 0.668 | 0.765 | 0.19 | 0.195 | 0.188 | 0.174 | 0.166 | 0.605 | 0.583 | 0.511 | 0.378 | 0.453
2 | HCC-78 | 0.788 | 0.677 | 0.723 | 0.559 | 0.698 | 0.776 | 0.76 | 0.62 | 0.636 | 0.679 | 0.892 | 0.515 | 0.593 | 0.648 | 0.559 | 0.924 | 0.869 | 0.904 | 0.915 | 0.902
3 | NCI-H2405 | 0.597 | 0.482 | 0.529 | 0.537 | 0.594 | 0.857 | 0.879 | 0.912 | 0.715 | 1.07 | 0.339 | 0.413 | 0.435 | 0.363 | 0.392 | 1.09 | 1.14 | 1.12 | 1.01 | 0.953
4 | SK-LU-1 | 0.504 | 0.405 | 0.604 | 0.526 | 0.483 | 0.98 | 0.719 | 0.757 | 0.861 | 0.842 | 0.634 | 0.536 | 0.605 | 0.511 | 0.47 | 0.967 | 0.816 | 1.03 | 0.948 | 0.969
5 | EMC-BAC-2 | 0.945 | 0.888 | 0.823 | 0.873 | 0.872 | 1.09 | 1.1 | 1.02 | 0.895 | 0.906 | 0.502 | 0.512 | 0.563 | 0.462 | 0.476 | 0.441 | 0.496 | 0.462 | 0.523 | 0.511
6 | NCI-H1650 | 0.431 | 0.357 | 0.475 | 0.484 | 0.365 | 0.979 | – | 1.25 | 0.962 | 1.22 | 0.368 | – | 0.351 | 0.308 | 0.308 | 0.31 | 0.291 | 0.344 | 0.284 | 0.3
7 | NCI-H596 | 0.783 | 0.725 | 0.834 | 0.782 | 0.797 | 1.01 | 0.94 | 1.03 | 0.815 | 0.934 | 0.804 | 0.804 | 0.729 | 0.753 | 0.685 | 0.537 | 0.492 | 0.504 | 0.548 | 0.489
8 | LCLC-97TM1 | 0.17 | 0.215 | – | 0.153 | 0.171 | 0.383 | 0.546 | 0.411 | 0.344 | 0.455 | 0.439 | 0.398 | 0.438 | 0.404 | 0.391 | 0.17 | 0.187 | 0.191 | 0.21 | 0.152

— the supplement of paper PMC10307832
